Results taken from publication PMC4076079, “Selective inhibitors of a PAF biosynthetic enzyme lysophosphatidylcholine acyltransferase 2” (Journal of Lipid Research, 2014).
Where two headings read alike, the source gives them in different places.

How the values were obtained:
RAW-mLPCAT2 cells = assay: cell-based assay: A23187-induced PAF production, PAF and lyso-PAF by LC-MS/MS; set-up: species or system mouse; conditions: for IC50: Mus musculus
Description: RAW-mLPCAT2 cells and peritoneal macrophages were seeded in 24-well plates (4 × 10^6 cells/well) for 24 or 2 h, respectively, before treatment. RAW-mLPCAT2 cells were stimulated with 5 μM A23187 for 5 min after a 1 h treatment with the compounds. Peritoneal macrophages were preincubated with 100 ng/ml LPS for 18 h, treated with the compounds for 1 h, and stimulated with 5 μM A23187 for 5 min. To analyze cellular PAF levels, lipids were extracted with 500 μl methanol containing d4-PAF and d4-lyso-PAF as internal standards. Each sample was submitted to solid phase extraction using an Oasis HLB 96-well cartridge cluster (Waters), and PAF and lyso-PAF were measured by LC-MS/MS as previously described ([13]).
Chromatography was performed using an Acquity™ Ultra-performance LC system (Waters) coupled to a TSQ Vantage triple stage quadrupole mass spectrometer (Thermo Scientific) with a HESI-II electrospray ionization source ([13]). Phospholipids were separated on BEH C8 columns (1.7 μm, 2.1 × 30 mm or 1 × 100 mm; Waters) for the analysis of assay products or the composition of cellular PAF and lyso-PAF, respectively. The mobile phase contained 20 mM aqueous ammonium bicarbonate and acetonitrile. The extracts from peritoneal macrophages were separated on a Kinetex C8 column (1.7 μm, 2.1 × 100 mm; Phenomenex, Torrance, CA) by a gradient elution with 0.05% formic acid-water and acetonitrile, using the Nexera X2 system and LCMS-8080 mass spectrometer (Shimadzu, Kyoto, Japan) ([13]). Lyso-PAF, d4-PAF, and d31-DPPC were identified by the choline fragment (m/z 184) as a product ion of selected reaction monitoring in the positive ion mode. Nonlabeled PAF and d4-16:0/20:4 alkyl-PC were determined by fatty acid anions of sn-2 composition (m/z 59 and 303, respectively) in the negative ion mode. Mass spectra were processed using the Xcalibur 2.0 (Thermo Scientific) or LabSolutions 5.50 (Shimadzu) software. Signal intensities were determined relative to the internal standard or as the percentage of the positive control. […]
Step 9 screening: cell-based assay
RAW-mLPCAT2 cells were treated with compounds for 1 h and analyzed after 5 min stimulation with A23187. The assays were performed with 0, 0.2, 0.6, 20, and 50 or 60 µM of compound. PAF concentration was measured by LC-MS/MS.
The data were normalized to each positive control (100% activation). Percentage inhibition or IC50 were determined in each screening step. To assess screening quality, the percentage coefficient of variance and the Z’ factor was calculated for each plate or each assay as described previously (2).

hLPCAT2 = target: T1, hLPCAT2 (Homo sapiens, UniProt Q7L5N7); assay: acyltransferase activity assay, 16:0/20:4 alkyl-PC product by LC-MS/MS; type: biochemical; conditions: for IC50: 0, 0.2, 0.6, 2, 6 and 20 μM of each compound in triplicate, LC-MS/MS, read-out: IC50, product Alkyl-PC (16:0/20:4 alkyl-PC), enzyme hLPCAT2; for percentage inhibition, product 16:0/20:4 Alkyl-PC, hLPCAT2: 20 μM compound, microsomal fractions of nonstimulated CHO-S-PAFR cells, n = 3, mean ± SEM
T1 construct: expressed in transfected cells; host or cells: CHO-S-PAFR cells (microsomal fraction), with or without mcPAF stimulation
T1 sequence (Q7L5N7 1-544): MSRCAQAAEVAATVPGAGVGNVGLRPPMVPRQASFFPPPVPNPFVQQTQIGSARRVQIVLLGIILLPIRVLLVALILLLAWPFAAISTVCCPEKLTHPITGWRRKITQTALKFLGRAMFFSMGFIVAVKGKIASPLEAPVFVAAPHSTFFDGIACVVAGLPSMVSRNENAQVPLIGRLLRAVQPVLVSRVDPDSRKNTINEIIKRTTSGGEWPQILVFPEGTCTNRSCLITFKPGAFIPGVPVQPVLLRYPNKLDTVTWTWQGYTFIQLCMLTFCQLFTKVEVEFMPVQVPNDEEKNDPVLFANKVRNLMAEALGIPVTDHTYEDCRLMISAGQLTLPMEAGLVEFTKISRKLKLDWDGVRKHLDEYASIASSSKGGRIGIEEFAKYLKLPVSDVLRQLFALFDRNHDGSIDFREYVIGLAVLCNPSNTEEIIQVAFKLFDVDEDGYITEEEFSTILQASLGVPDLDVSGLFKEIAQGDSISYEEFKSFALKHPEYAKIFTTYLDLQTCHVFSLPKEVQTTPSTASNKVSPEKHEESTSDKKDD
Description: Microsomal protein fractions (0.5 μg) supplemented with the indicated compound concentrations were added to the reaction mixture containing 100 mM Tris-HCl (pH 7.4), 1 μM CaCl2, 0.015% Tween-20, and two substrates. For acetyltransferase activity, the substrates were 1 mM acetyl-CoA and 5 μM d4-lyso-PAF; for the acyltransferase activity of LPCAT1 or LPCAT2, the substrates were, respectively, palmitoyl-CoA and d31-16:0 LPC or arachidonoyl-CoA and d4-lyso-PAF (all 5 μM). Each lysophospholipid contained fatty acid at the sn-1 position. After incubation at 37°C for 5 min, the reactions were stopped by adding 300 μl methanol containing 17:0 LPC or 14:0/14:0 PC as an internal standard. Deuterium-labeled products were analyzed by LC-MS/MS (Waters, Milford, MA and Thermo Scientific, Waltham, MA). […]
Steps 2 to 5 screening: 96-well plate assay
Acetyltransferase and acyltransferase assays were developed in 96-well plates. The microsomal hLPCAT2, obtained from mcPAF-stimulated CHO-S-PAFR cells was used in steps 1, 2, and 5. The microsomal hLPCAT1 obtained from unstimulated CHO-S cells was used in steps 3 to 5. Each well of the 96-well plates contained 30 µl of 15 µg/ml protein, 600 nl of 2 mM compound, 30 µl buffer C, and two substrates (Fig. 1B and C).
Substrate concentrations were as follows: acetyl-CoA, 250 or 1000 µM acetyl-CoA; […]
arachidonoyl-CoA, 5 µM; palmitoyl-CoA, 5 µM; d4-lyso-PAF, 5 µM; and d31-LPC, 5 µM.
For step 5, compound concentrations were 0, 0.167, 0.67, 2, 6.7, and 20 µM. The deuterium-labeled products were measured by LC-MS/MS. Percentage inhibition (steps 2 to 4) or IC50 (step 5) was used as the hit criterion. […]
Step 7 screening: species-specific differences
To evaluate the effects on the activity of mouse or human LPCAT1 and LPCAT2, each microsomal fraction was obtained using CHO-S-PAFR cells with or without mcPAF (200 nM) stimulation for 5 min. Acetyltransferase and acyltransferase assays were performed with 20 µM of each compound. Percentage inhibition was calculated in each

[1] = 1 h pretreatment, 5 μM A23187 for 5 min
[2] = screening step 9 (n = 2), 1 h compound, 5 min A23187, read-out: IC50, A23187-induced PAF production

| Structure (SMILES) | A23187-induced PAF production (RAW-mLPCAT2 cells; [1]) | lyso-PAF level (RAW-mLPCAT2 cells; [1]) | IC50 (RAW-mLPCAT2 cells; 1 h pretreatment, 5 μM A23187 for 5 min, Fig. 4, three independent experiments, read-out: IC50, inhibition of PAF production) [µM] | IC50 (RAW-mLPCAT2 cells; [2]) [µM] | IC50 (hLPCAT2) [µM] | percentage inhibition, product 16:0/20:4 Alkyl-PC, hLPCAT2 (hLPCAT2) [percentage] |
| --- | --- | --- | --- | --- | --- | --- |
| CC(C)OC(=O)c1ccc(N2C(=O)C(Cl)=C(Cl)C2=O)cc1 [TSI-01, propan-2-yl 4-(3,4-dichloro-2,5-dioxopyrrol-1-yl)benzoate] | suppressed | increased | 38.8 | 28.2 | 1.27 | 95.2 ± 1.3 |
| O=C1C(Cl)=C(N2CCOCC2)C(=O)N1c1ccc(Oc2ccccc2)cc1 [TSI-02, 3-chloro-4-morpholin-4-yl-1-(4-phenoxyphenyl)pyrrole-2,5-dione] | – | – | – | 23.6 | 1.16 | – |
| CC(C)OC(=O)c1ccc(N2C(=O)C(Cl)=C(Nc3ccccc3O)C2=O)cc1 [TSI-07] | suppressed | decreased | – | – | 13.3 | 83.1 ± 4.3 |
| CCCOC(=O)c1ccc(N2C(=O)C(Cl)=C(Cl)C2=O)cc1 [TSI-10] | suppressed | increased | – | – | 0.3 | 85.4 ± 3.0 |
| CCCCOC(=O)c1ccc(N2C(=O)C(Cl)=C(Cl)C2=O)cc1 [TSI-11, butyl 4-(3,4-dichloro-2,5-dioxopyrrol-1-yl)benzoate] | suppressed | not changed | – | – | 0.33 | 80.4 ± 2.7 |
